Series [1] deals with T1, Amine oxidase [flavin-containing] A (Homo sapiens, UniProt P21397).
T1 sequence (P21397 whole entry): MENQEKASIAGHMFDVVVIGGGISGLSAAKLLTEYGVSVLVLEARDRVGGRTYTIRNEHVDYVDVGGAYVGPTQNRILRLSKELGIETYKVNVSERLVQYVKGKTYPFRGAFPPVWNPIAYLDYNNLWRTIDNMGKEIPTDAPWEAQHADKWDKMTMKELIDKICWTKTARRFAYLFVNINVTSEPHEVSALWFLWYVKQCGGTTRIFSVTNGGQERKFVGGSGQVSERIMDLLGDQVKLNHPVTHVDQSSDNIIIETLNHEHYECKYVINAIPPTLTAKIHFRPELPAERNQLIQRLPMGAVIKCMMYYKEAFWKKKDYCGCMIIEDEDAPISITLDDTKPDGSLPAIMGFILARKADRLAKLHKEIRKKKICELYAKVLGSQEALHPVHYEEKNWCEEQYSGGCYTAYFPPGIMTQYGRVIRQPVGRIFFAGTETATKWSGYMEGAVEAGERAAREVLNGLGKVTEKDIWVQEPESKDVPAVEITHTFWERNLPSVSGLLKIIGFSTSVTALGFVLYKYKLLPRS
Briefly: Inhibition of human MAOA using p-tyramine as substrate at 100 uM after 15 mins by Amplex Red MAO assay. The following applies: 0.25 h.

In series [2] the target is T2, Amine oxidase [flavin-containing] B (Homo sapiens, UniProt P27338).
T2 sequence (P27338 whole entry): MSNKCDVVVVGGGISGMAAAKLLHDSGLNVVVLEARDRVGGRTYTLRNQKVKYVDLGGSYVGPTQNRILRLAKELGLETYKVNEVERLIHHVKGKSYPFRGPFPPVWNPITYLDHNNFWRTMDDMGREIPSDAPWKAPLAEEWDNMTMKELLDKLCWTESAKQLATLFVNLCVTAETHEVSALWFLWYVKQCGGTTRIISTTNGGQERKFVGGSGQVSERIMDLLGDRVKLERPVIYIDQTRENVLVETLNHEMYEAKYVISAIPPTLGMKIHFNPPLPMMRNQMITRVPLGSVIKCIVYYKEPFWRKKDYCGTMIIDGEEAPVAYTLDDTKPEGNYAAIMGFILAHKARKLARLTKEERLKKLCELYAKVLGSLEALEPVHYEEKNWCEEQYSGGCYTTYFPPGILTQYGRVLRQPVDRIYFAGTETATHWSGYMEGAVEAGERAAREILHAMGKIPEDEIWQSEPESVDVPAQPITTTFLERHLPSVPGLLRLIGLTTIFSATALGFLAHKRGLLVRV
The series can be described thus: Inhibition of human MAOB using p-tyramine as substrate after 15 mins by Amplex Red MAO assay.

A further series is filed under the species Homo sapiens. The series can be described thus: Selectivity index, ratio of IC50 for human MAOA to IC50 for human MAOB.
For series [3], the target named is T1, Amine oxidase [flavin-containing] A. Briefly: Inhibition of human MAOA using p-tyramine as substrate after 15 mins by Amplex Red MAO assay.
Series [4] has the same target. The series can be described thus: Inhibition of MAOA (unknown origin).
Series [5] addresses T2, Amine oxidase [flavin-containing] B. The series can be described thus: Inhibition of MAOB (unknown origin).
The target is the same in series [6]. Briefly: Reversible inhibition of human MAOB using p-tyramine as substrate preincubated for 60 mins.
The target is the same in series [7]. Briefly: Competitive inhibition of human MAOB using 50 to 500 uM of p-tyramine as substrate up to 20 nM by Lineweaver-Burk plot analysis.
The next series concerns SH-SY5Y. Briefly: Neurotoxicity against human SH-SY5Y cells assessed as cell viability at 3 to 50 uM after 48 hrs by MTT assay. The class given is toxicity, cell-based. (Tetrazolium dyes change colour on reduction, which living cells bring about.)

SMILES strings stand for the structures.

What is called inhibition is the relative decrease from the control value, in per cent. A high value points to a strong effect. As a reminder, the IC50 is the concentration needed to halve the response being measured. Turning to `CC(=O)c1ccc(OCc2ccccc2)cc1`, in series [1], the inhibition at 100 µM is 8.19%. This compound also yielded a 50% inhibitory concentration (IC50) in [2] of 110 nM. The Ratio IC50 in the series filed under Homo sapiens is above 909.

On to `CC(=O)c1ccc(OCc2ccccc2C(F)(F)F)cc1`, for which the IC50 is 70500 nM in series [3] and 183 nM in series [2]. Besides, the Ratio IC50 in the series filed under Homo sapiens is 385.

As to `CC(=O)c1ccc(OCc2ccc(F)cc2F)cc1`, the inhibition at 100 µM in [1] came to 45.7%. In series [2], the concentration for half-maximal inhibition (IC50) was found to be 27.3 nM. Besides, the Ratio IC50 in the series filed under Homo sapiens is above 3660.

For `C#CCNCc1cc2cc(OCc3ccccc3)ccc2[nH]1`, the results for the IC50 in series [4] and in [5] were 790 nM and 11 nM, respectively.

Compound `CC(=O)c1ccc(OCc2ccccc2[N+](=O)[O-])cc1` gave an inhibition at 100 µM in [1] of 34%. Besides, the IC50 in series [2] came out at 284 nM. In the series listed under Homo sapiens, the Ratio IC50 is above 352. The “inhibition (INH)” value in [6] is “Active”.

For the compound `CC(=O)c1cccc(OCc2ccccc2)c1`, the inhibition at 100 µM in series [1] came to 31%. The same compound displayed a half-inhibitory concentration (IC50) in series [2] of 1950 nM. For the same compound, the Ratio IC50 in the series filed under Homo sapiens is above 51.3.

Take `CC(=O)c1cccc(OCc2ccc(C)cc2)c1`: the inhibition at 100 µM in series [1] was 23%. In series [2], this compound displayed an IC50 of 140 nM. Besides, the Ratio IC50 in the series filed under Homo sapiens is above 714.

In [1], `CC(=O)c1cccc(OCc2ccc(F)cc2)c1` yielded an inhibition at 100 µM of 49.6%. Also, the half-maximal inhibitory concentration (IC50) in series [2] was 86.4 nM. Also, the Ratio IC50 in the series filed under Homo sapiens was above 1160.

In series [1], `CC(=O)c1ccc(OCc2cccc(C)c2)cc1` gave an inhibition at 100 µM of 32.3%. Besides, in [2], half-maximal inhibition (IC50) required 86.3 nM. In addition, the Ratio IC50 in the series filed under Homo sapiens is above 1160.

For `CC(=O)c1ccc(OCc2ccc(Br)cc2)cc1O`, the 50% inhibitory concentration (IC50) came out at 15800 nM in [4] and 4 nM in series [5].

With `CC(=O)c1ccc(OCc2ccc(Cl)cc2)cc1`, the IC50 in series [3] turned out to be 93600 nM; in [2], 63.2 nM. Moreover, the Ratio IC50 in the series filed under Homo sapiens is 1480.

In [1], `CC(=O)c1ccc(OCc2ccc(C(F)(F)F)cc2)cc1` registered an inhibition at 100 µM of 26.4%. Inhibition in series [2] was half-maximal at 77.8 nM (IC50). The Ratio IC50 in the series listed under Homo sapiens is above 1280.

Compound `CC(=O)c1cccc(OCc2cccc(F)c2)c1` yielded an inhibition at 100 µM in series [1] of 31%. Further, the concentration for half-maximal inhibition (IC50) in series [2] stood at 193 nM. Also, the Ratio IC50 in the series filed under Homo sapiens was above 518.

`CC(=O)c1cccc(OCc2cccc([N+](=O)[O-])c2)c1` registered an inhibition at 100 µM in series [1] of 17.8%. The compound further showed an IC50 in series [2] of 114 nM. In addition, the Ratio IC50 in the series filed under Homo sapiens was above 877.

`CC(=O)c1ccc(OCc2cccc(Br)c2)cc1` registered an inhibition at 100 µM in series [1] of 48.3%. Also, the concentration for half-maximal inhibition (IC50) in [2] came to 214 nM. Further, in the series listed under Homo sapiens, the Ratio IC50 is above 467.

For the compound `C[C@H](NCc1ccc(OCc2cccc(F)c2)cc1)C(N)=O` [SAFINAMIDE], testing at 100 µM in series [1] gave an inhibition of 9.74%.

In turn, `CC(=O)c1ccc(OCc2ccc(C)cc2)cc1` returned an inhibition at 100 µM in [1] of 5.96%. For the same compound, in series [2], the IC50 was found to be 102 nM. For the same compound, in the series listed under Homo sapiens, the Ratio IC50 is above 980.

`CC(=O)c1ccc(OCc2ccc(F)cc2)cc1` registered an inhibition at 100 µM in [1] of 43.5%. In addition, the Activity result in series [7] was “Active”; in the series with SH-SY5Y, “Non-toxic”.

In the case of `O=C1CCCc2cc(OCc3ccc(I)cc3)ccc21`, the IC50 in [4] is 1290 nM; in series [5], 4.5 nM.

Regarding `CC(=O)c1ccc(OCc2cccc([N+](=O)[O-])c2)cc1`, the IC50 was 51300 nM in [3] and 104 nM in series [2]. In addition, in the series listed under Homo sapiens, the Ratio IC50 stood at 493.

Consider `CC(=O)c1ccc(OCc2ccc(F)c(F)c2)cc1`, for which the half-inhibitory concentration (IC50) in series [3] came out at 78300 nM; in series [2], 67.9 nM. In addition, in the series filed under Homo sapiens, the Ratio IC50 is 1150.

With `CC(=O)c1cccc(OCc2cccc(Cl)c2)c1`, the IC50 in [3] amounted to 46800 nM; in series [2], 34.2 nM. Further, the Ratio IC50 in the series filed under Homo sapiens is 1370.

On to `CC(=O)c1ccc(OCc2ccc([N+](=O)[O-])cc2)cc1`, for which, in series [1], the inhibition at 100 µM turned out to be 33.8%. This compound gave an IC50 in series [2] of 96.5 nM. For the same compound, in the series listed under Homo sapiens, the Ratio IC50 was above 1040.

For `CC(=O)c1ccc(OCc2ccccc2Cl)cc1`, the figures for the IC50 in series [3] and in [2] were 89600 nM and 311 nM, respectively. Further, the Ratio IC50 in the series listed under Homo sapiens was 288.

As for `CC(=O)c1ccc(OCc2cccc(F)c2)cc1`, the inhibition at 100 µM in series [1] turned out to be 48.4%. The compound further returned an IC50 in [2] of 83.1 nM. Besides, the Ratio IC50 in the series listed under Homo sapiens was above 1200.

Consider `CC(=O)c1cccc(OCc2ccc([N+](=O)[O-])cc2)c1`, for which the 50% inhibitory concentration (IC50) in series [3] was found to be 88300 nM; in series [2], 75.4 nM. In addition, the Ratio IC50 in the series listed under Homo sapiens came to 1180.

In turn, `CC(=O)c1cccc(OCc2cccc(C(F)(F)F)c2)c1` gave an inhibition at 100 µM in series [1] of 46.7%. This compound also showed an IC50 in series [2] of 21.2 nM. Besides, in the series filed under Homo sapiens, the Ratio IC50 was above 4720. Besides, the “inhibition (INH)” value in series [6] is “Active”.

The compound `CC(=O)c1ccc(OCc2cccc(Cl)c2)cc1` showed a 50% inhibitory concentration (IC50) in series [3] of 83300 nM.

On to `CC(=O)c1ccc(OCc2ccccc2F)cc1`, for which 100 µM produced 47.1% inhibition in [1]. In series [2], this compound yielded an IC50 of 56.9 nM. Besides, in the series listed under Homo sapiens, the Ratio IC50 was above 1760.

Turning to `CC(=O)c1cccc(OCc2ccc(C(F)(F)F)cc2)c1`, the inhibition at 100 µM in series [1] worked out at 27.2%. This compound also displayed an IC50 in [2] of 43.2 nM. For the same compound, the Ratio IC50 in the series filed under Homo sapiens is above 2320.

For the compound `CC(=O)c1ccc(OCc2cc(F)c(F)c(F)c2)cc1`, the inhibition at 100 µM in series [1] stood at 44.3%. Half-maximal inhibition in series [2] (IC50) required 84.1 nM. In the series filed under Homo sapiens, the Ratio IC50 is above 1190.

Turning to `CC(=O)c1ccc(OCc2ccc(Br)cc2)cc1`, the inhibition at 100 µM in series [1] was determined as 23.2%. The compound further displayed a half-inhibitory concentration (IC50) in series [2] of 85.6 nM. Moreover, in the series listed under Homo sapiens, the Ratio IC50 was above 1170.

Consider `O=C1CCc2ccc(OCc3ccc(Br)cc3)cc2N1`, for which the IC50 in [4] was determined as 7980 nM; in series [5] it was 2.9 nM.

In turn, `CC(=O)c1cccc(OCc2cccc(Br)c2)c1` displayed an inhibition at 100 µM in [1] of 49.1%. The compound also displayed an IC50 in [2] of 96.3 nM. Moreover, the Ratio IC50 in the series listed under Homo sapiens is above 1040.

Regarding `CC(=O)c1cccc(OCc2ccc(Br)cc2)c1`, inhibition in series [3] was half-maximal at 48700 nM (IC50).

In turn, `CC(=O)c1cccc(OCc2cccc(C)c2)c1` registered an inhibition at 100 µM in series [1] of 31.1%. Besides, the 50% inhibitory concentration (IC50) in series [2] amounted to 893 nM. In addition, the Ratio IC50 in the series listed under Homo sapiens is above 112.

For the compound `CC(=O)c1cccc(OCc2ccc(Cl)cc2)c1`, the IC50 in [3] came out at 39700 nM. The Activity entry in series [7] is “Active”; with SH-SY5Y, “Non-toxic”.

Take `CC(=O)c1ccc(OCc2ccccc2C)cc1`: in [1], 100 µM produced 42.9% inhibition. In series [2], this compound gave an IC50 of 77.1 nM. Moreover, in the series listed under Homo sapiens, the Ratio IC50 was above 1300.

The compound `CC(=O)c1ccc(OCc2cccc(C(F)(F)F)c2)cc1` showed an inhibition at 100 µM in [1] of 48.9%. In addition, in series [2], 58.2 nM corresponded to half-maximal inhibition (IC50). The Ratio IC50 in the series listed under Homo sapiens is above 1720.

Values taken from ChEMBL document CHEMBL3769324, “Acetophenone derivatives: novel and potent small molecule inhibitors of monoamine oxidase B” (Medchemcomm, 2015).
